Test results taken from patent publication US8716242B2, “β-hairpin peptidomimetics” (priority 2009, dated 2014).
Bridge positions count the residues as written; N and C are the ends. Square brackets hold non-standard residues; d marks the D form. Side chains are listed from the residue outwards. Peptide text beside a SMILES is read from it. * marks the point of attachment. Cholyl = C[C@H](CCC(=O)*)[C@H]1CC[C@H]2[C@@H]3[C@H](O)C[C@@H]4C[C@H](O)CC[C@]4(C)[C@H]3C[C@H](O)[C@]12C; Adamantane1carbonyl = O=C(C12CC3CC(CC(C3)C1)C2)*; NH(1-Adamantyl) = C1C2CC3CC1CC(N*)(C2)C3; Octanoyl = CCCCCCCC(=O)*; Dab = NCC[C@H](N)C(=O)O

What was measured:
[1] = Plasma stability in human plasma; assay type: in vitro ADME; conditions: human plasma, 37° C.; for remaining at 24 h, 10 μM: 1440 min, read-out: human pl. cpd left at 1440 min; for human pl. T1/2 / half-life: up to 1440 min; for half-life: read-out: human pl. T1/2
Experimental: Percent hemolysis was calculated as follows: (OD540peptide/OD540H2O)×100%. 2.6. Plasma Stability
The stability of the peptides in human and mouse plasma was determined by applying the following method: 346.5 μL/deep well of freshly thawed human plasma (Basler Blutspendedienst) and mouse plasma (Harlan Sera-Lab, UK), respectively, were spiked with 3.5 μL/well of compound dissolved in DMSO/H2O ([…] [v/v], 1 mM, triplicate) and incubated at 37° C. At t=0, 15, 30, 60, 120, 240 and 1440 min aliquots of 50 μL were transferred to filtration plate wells containing 150 μL/well of 2% formic acid in acetonitrile. Following shaking for 2 min the occurred suspensions were filtrated by vacuum and 50 μL of each filtrate was mixed with 100 μL of 1% formic acid in H2O. After transfer to a propylene microtiter plate, the filtrates were analyzed by LC/MS as follows: Column: Waters, XBridge C18, mobile phases: (A) water+0.1% formic acid and (B) acetonitrile/water, 95/5 (v/v)+0.1% formic acid, gradient: 5%-100% (B) in 2 minutes, electrospray ionization, MRM detection (triple quadrupole). The peak areas were determined and triplicate values are averaged. The stability is expressed in percent of the initial value at t=0. (tx/t0×100). By using the TREND function of EXCEL (Microsoft Office 2003) T1/2 were determined.

[2] = Cytotoxicity, MTT reduction assay, COS-7 cells; assay type: cell-based; conditions: 48 h, 12.5-50 μM
Experimental: (§1) Mouse pre-B cells were cultured in RPMI1640 plus 5% FBS, antibiotic/antimycotic, non essential amino acid, 50 μM β-mercaptoethanol and 1 mM natrium pyruvate. HELA cells were maintained in RPMI1640 plus 10% FBS, pen/strept and 2 mM L-glutamine. Cos-7 cells were grown in DMEM medium with […] glucose supplemented with 10% FCS, pen/strept and 2 mM L-glutamine. All cell lines were grown at 37° C. at 5% CO2. Cell media, media supplements, PBS-buffer, HEPES, antibiotic/antimycotic, pen/strept, non essential amino acid, L-glutamine, β-mercaptoethanol and sera were purchased from Gibco (Pailsey, UK). All fine chemicals were supplied by Merck (Darmstadt, Germany).
(§2) The cytotoxicity of the peptides to HELA cells (Acc57) and COS-7 cells (CRL-1651) was determined using the MTT reduction assay (T. Mossman, J. Immunol. Meth. 1983, 65, 55-63; M. V. Berridge, A. S. Tan, Arch. Biochem. Biophys. 1993, 303, 474-482). Briefly, the method was as follows: 4000 HELA cells/well and 3400 COS-7 cells/well were seeded and grown in 96-well microtiter plates for 24 h at 37° C. at 5% CO2. Thereafter, time zero (Tz) was determined by MTT reduction (see below). The supernatant of the remaining wells was discarded, and fresh medium and compounds in serial dilutions (12.5, 25 and 50 μM, triplicates) were pipetted into the wells. After incubation of the cells for 48 h at 37° C. at 5% CO2 the supernatant was discarded again and 100 μL MTT reagent (0.5 mg/mL in RPMI1640 and DMEM, respectively)/well was added. Following incubation at 37° C. for 2-4 h the media were aspirated and the cells were spiked (100 μL isopropanol/well). The absorbance of the solubilized formazan was measured at 595 nm (OD595peptide). For each concentration averages were calculated from triplicates. The percentage of growth was calculated as follows: (OD595peptide-OD595Tz-OD595Empty well)/(OD595Tz-OD595Empty well)×100%. The GI50 (Growth Inhibition) concentrations were calculated for each peptide by using a trend line function for the concentrations (50, 25, 12.5 and 0 μM), the corresponding percentages and the value 50, (=TREND (C50: C0, %50:%0,50).

[3] = Cytotoxicity, MTT reduction assay, HELA cells; assay type: cell-based; conditions: 48 h, 12.5-50 μM
Experimental: as §1, §2

For `C[C@@H](O)[C@@H]1NC(=O)[C@H](Cc2c[nH]cn2)NC(=O)[C@H](Cc2ccc(O)cc2)NC(=O)[C@@H]2CCCN2C(=O)[C@H]2CCCN2C(=O)[C@H](CCC(N)=O)NC(=O)[C@H](CCC(=O)NC23CC4CC(CC(C4)C2)C3)NC(=O)[C@H](Cc2ccc(O)cc2)NC(=O)[C@@H]2CSSC[C@H](NC1=O)C(=O)N[C@@H](CCCNC(=N)N)C(=O)NCC(=O)N1CCC[C@@H]1C(=O)N[C@@H](CCN)C(=O)N[C@@H](CCCNC(=N)N)C(=O)N[C@@H](Cc1ccc(O)cc1)C(=O)N2` [Ex. 31] (cyclo(YHTCRG[dP][Dab]RYCYE(NH(1-Adamantyl))Q[dP]P); disulfide 4-11), the remaining at 24 h, 10 μM [1] was 68%, the “human pl. T1/2” value [1] was 24 h and the GI50 [2] was > 50 µM. The GI50 [3] was > 37 µM.

With `CCCCCCCC(=O)NCCCC[C@@H]1NC(=O)[C@H](CCC(N)=O)NC(=O)[C@H](Cc2ccc(O)cc2)NC(=O)[C@@H]2CSSC[C@H](NC(=O)[C@H](Cc3ccc(O)cc3)NC(=O)[C@H](CCCNC(=N)N)NC(=O)[C@H](Cc3ccc(O)cc3)NC(=O)[C@@H]3CCCN3C(=O)[C@H]3CCCN3C1=O)C(=O)N[C@@H](CO)C(=O)N[C@@H](C)C(=O)N1CCC[C@@H]1C(=O)N[C@@H](CCN)C(=O)N[C@@H](CCCNC(=N)N)C(=O)N[C@@H](Cc1ccc(O)cc1)C(=O)N2` [Ex. 32] (cyclo(YRYCSA[dP][Dab]RYCYQK(Octanoyl)[dP]P); disulfide 4-11) the remaining at 24 h, 10 μM [1] was 39%, the half-life [1] was 12.9 h and the GI50 ([2]; COS-7 cells) was > 50 µM. The GI50 ([3]; HELA cells) was > 24 µM.

With `C[C@@H]1NC(=O)[C@H](CO)NC(=O)[C@@H]2CSSC[C@H](NC(=O)[C@H](Cc3ccc(O)cc3)NC(=O)[C@H](CCCNC(=N)N)NC(=O)[C@H](CCN)NC(=O)[C@H]3CCCN3C1=O)C(=O)N[C@@H](Cc1ccc(O)cc1)C(=O)N[C@@H](CCC(N)=O)C(=O)N[C@@H](CCCCNC(=O)CNC(=O)CC[C@@H](C)[C@H]1CC[C@H]3[C@@H]4[C@H](O)C[C@@H]5C[C@H](O)CC[C@]5(C)[C@H]4C[C@H](O)[C@]13C)C(=O)N1CCC[C@@H]1C(=O)N1CCC[C@H]1C(=O)N[C@@H](Cc1ccc(O)cc1)C(=O)N[C@@H](CCCNC(=N)N)C(=O)N[C@@H](Cc1ccc(O)cc1)C(=O)N2` [Ex. 33] (cyclo(YRYCSA[dP][Dab]RYCYQK([Gly-Cholyl])[dP]P); disulfide 4-11) the remaining at 24 h, 10 μM [1] was 61%, the half-life [1] was 20.4 h and the GI50 ([2]; COS-7 cells) was > 50 µM. The GI50 ([3]; HELA cells) was > 18 µM.

With `C[C@@H](O)[C@@H]1NC(=O)[C@H](Cc2c[nH]cn2)NC(=O)[C@H](Cc2ccc(O)cc2)NC(=O)[C@@H]2CCCN2C(=O)[C@H]2CCCN2C(=O)[C@H](CCCCNC(=O)C23CC4CC(CC(C4)C2)C3)NC(=O)[C@H](CCC(N)=O)NC(=O)[C@H](Cc2ccc(O)cc2)NC(=O)[C@@H]2CSSC[C@H](NC1=O)C(=O)N[C@@H](CCCNC(=N)N)C(=O)NCC(=O)N1CCC[C@@H]1C(=O)N[C@@H](CCN)C(=O)N[C@@H](CCCNC(=N)N)C(=O)N[C@@H](Cc1ccc(O)cc1)C(=O)N2` [Ex. 35] (cyclo(YHTCRG[dP][Dab]RYCYQK(Adamantane1carbonyl)[dP]P); disulfide 4-11) the remaining at 24 h, 10 μM [1] was 63%, the “human pl. T1/2” value [1] was 24 h and the GI50 [2] was > 30 µM. The GI50 [3] was > 50 µM.

For `C[C@@H](O)[C@@H]1NC(=O)[C@H](Cc2c[nH]cn2)NC(=O)[C@H](Cc2ccc(O)cc2)NC(=O)[C@@H]2CCCN2C(=O)[C@H]2CCCN2C(=O)[C@H](CCC(=O)NC23CC4CC(CC(C4)C2)C3)NC(=O)[C@H](CCC(N)=O)NC(=O)[C@H](Cc2ccc(O)cc2)NC(=O)[C@@H]2CSSC[C@H](NC1=O)C(=O)N[C@@H](CCCNC(=N)N)C(=O)NCC(=O)N1CCC[C@@H]1C(=O)N[C@@H](CCN)C(=O)N[C@@H](CCCNC(=N)N)C(=O)N[C@@H](Cc1ccc(O)cc1)C(=O)N2` [Ex. 36] (cyclo(YHTCRG[dP][Dab]RYCYQE(NH(1-Adamantyl))[dP]P); disulfide 4-11), the remaining at 24 h, 10 μM [1] was 53%, the half-life [1] was 23.2 h and the GI50 [2] was > 50 µM. The GI50 [3] was > 50 µM.
